Experimental data taken from patent US20250082656A1, “DOSAGE REGIMENS FOR TREATMENT OF DENGUE INFECTION” (Atea Pharmaceuticals, Inc., priority 2022, published 2025).
Like-named read-outs stand apart in the source and are kept apart here.

Experiments:
[1] = Pharmacokinetic study in SAD cohorts; assay type: in vivo, human; conditions: for CL renal: plasma and urine; for AUC(0-inf) / half-life / Cmax / Tmax / AUCInf / T1/2: human plasma; for dose proportionality of plasma exposure: dose range 250 to 1500 mg; for Urine Elimination: following single oral administration of Compound 2 at 250 to 1500 mg
Method: (§1) Pharmacokinetic measurements for FIGS. 11, 12, 13, 14, and 15 were analyzed using LC-MS/MS according to the protocol described herein. Plasma samples were prepared for MS analysis by adding internal standards and extracting with 20 volumes chilled ACN. After vortex (800 rpm for 10 min) and centrifugation (4,000 rpm, 15 min, 4° C.), the supernatants (25 μL) were diluted with an equal volume of H2O, mixed and spun again. After adding internal standards, the PBMC samples (10^6 cells) were lyzed with 300 μL MeOH/H2O (70:30, v/v) and 40 mM dibutylammonium acetate (DBAA), mixed by vortex and centrifuged (12,000 rpm, 15 min, 4° C.). Aliquots of the supernatants (35 μL) were dried under nitrogen and reconstituted in H2O, then mixed and spun again. […] A binary nonlinear gradient with mobile phases A (0.1% formic acid in water) and B (0.1% formic acid in ACN) were used to elute samples at 0.8 mL/min, with a run time of 5 min. […] A binary nonlinear gradient with mobile phases A (0.001% NHr H2O, 0.18 mM DBAA in H2O) and B (10 mM N,N-dimethyl-hexylamine, 3 mM NH4OAc in ACN/H2O (50.50, v/v)) were used to elute samples at 0.5 mL/min, with a run time of 3 min. Standards in 50% MeOH were used for calibration. […] Internal standards (ISS) as described previously (Good et al., Preclinical evaluation of AT-527, a novel guanosine nucleotide prodrug with potent, pan-genotypic activity against hepatitis C virus. PLos One 15:e02271045) were used to correct for variations in recovery.
(§2) Data analysis of the pharmacokinetic data generated according to Example 21 and presented in FIGS. 11, 12, 13, 14, and 15 was analyzed according to the procedure described herein. Plasma concentrations of Compound 1 (AT-281), Compound 3 (AT-551) and Compound 6 (AT-273) were subjected to non-compartmental pharmacokinetic analysis using Phoenix WinNonlin software (version 6.3 or above, Pharsight, Mountain View, CA). The linear/log trapezoidal rule was applied in obtaining the PK parameters.

[2] = Plasma PK after single oral dose of AT-752, rats; assay type: in vivo, SD rats; conditions: Rat, single oral AT-752 300 mg/kg
Method: Male SD rats were administered 300 mg/kg Compound 2 (AT-752). Blood samples were collected up to 24 hrs. post dose, plasma separated and analyzed for Compound 1 (AT-281), Compound 3 (AT-551), and Compound 6 (AT-273) by LC-MS/MS. Data are express as mean+/−SD (n=3-5/time point). The x-axis is time post the dose measured in hours and the y-axis is the plasma concentration of the metabolites measured in nanomoles/mL). The experimental procedure is provided in Example 14.
Male naïve SD rats (Beijing Vital River Laboratory Animals Co. Ltd., China) were administered a dose of AT-752 at 300 mg/kg in 40% PEG400, 10% solutol HS15, 50% 100 mM citrate buffer, pH 4.5 (v/v) by oral gavage. Blood samples (n=4) were collected at 1, 2, 4, 8, 12 and 24 h post-dose, plasma separated and stored at −70° C. […] For PBMCs, nine male naïve SD rats were administered a dose of Compound 2 (AT-752) (at a Compound 1 (AT-281) equivalent dose of 300 mg/kg) by oral gavage.
as §1, §2

[3] = Multiple-dose tolerability and steady state exposure, mice; assay type: in vivo, CD-1 mice
Method: There were no adverse clinical signs observed in the mice so the multiple doses of the prodrug were well-tolerated.
Separately, two mouse studies with multiple dosing were conducted. First, 9 naïve CD-1 mice were administered Compound 1 (AT-281) in 100 mM citrate buffer, pH 4.5 by oral gavage at 500 mg/kg for the first dose and, 4 h later, 250 mg/kg for the second dose. Blood samples were collected, 3 animals per time point, at 4 (before the second dosing), 8 and 16 h post the first dose, and PBMCs isolated. Secondly, 9 naïve CD-1 mice were administered Compound 1 (AT-281) by oral gavage at 1000 mg/kg for the first dose, and then 4 h later, they were given twice daily doses 12 hours apart for 3 consecutive days at 500 mg/kg. Blood samples were collected, 3 animals per time point, at 16 (received one 500 mg/kg dose), 40 (received three 500 mg/kg doses) and 76 h post first dose (received six 500 mg/kg doses), and PBMCs were isolated.
as §1

[4] = for Tmax / AUCtau / Cmax: steady-state, human plasma; for Tmax: median (minimum-maximum); for AUCtau / Cmax: mean±SD
[5] = Plasma PK after single oral dose of AT-752, mice; conditions: Mouse, single oral AT-752 420 mg/kg
[6] = both sexes, human, plasma, po, 250 mg, single oral Compound 2 250 mg, fasting
[7] = both sexes, human, plasma, po, 500 mg, single oral Compound 2 500 mg, fasting
[8] = both sexes, human, plasma, po, 500 mg, single oral Compound 2 500 mg, fed
[9] = both sexes, human, plasma, po, 1000 mg, single oral Compound 2 1000 mg, South/Southeast/East Asian origin
[10] = both sexes, human, plasma, po, 1000 mg, single oral Compound 2 1000 mg, fasting
[11] = both sexes, human, plasma, po, 1500 mg, single oral Compound 2 1500 mg, fasting
[12] = 1000 mg/kg loading then 500 mg/kg twice a day for 3 days, 12 h after the sixth 500 mg/kg dose
[13] = 1000 mg/kg loading then 500 mg/kg twice a day, 12 h after the first 500 mg/kg dose
[14] = single oral Compound 2 250 mg, fasting
[15] = single oral Compound 2 500 mg, fasting
[16] = single oral Compound 2 500 mg, fed
[17] = single oral Compound 2 1000 mg, South/Southeast/East Asian origin
[18] = single oral Compound 2 1000 mg, fasting
[19] = single oral Compound 2 1500 mg, fasting

## CNc1nc(N)nc2c1ncn2[C@@H]1O[C@H](CO[P@](=O)(N[C@@H](C)C(=O)OC(C)C)Oc2ccccc2)[C@@H](O)[C@@]1(C)F [Compound 1, isopropyl ((R)-(((2R,3R,4R,5R)-5-(2-amino-6-(methylamino)-9H-purin-9-yl)-4-fluoro-3-hydroxy-4-methyltetrahydrofuran-2-yl)methoxy)(phenoxy)phosphoryl)-L-alaninate]
[1]; both sexes, human, po, 250 mg, single oral Compound 2 250 mg, fasting
  CL renal: 125 mL/min
[1]; both sexes, human, po, 500 mg, single oral Compound 2 500 mg, fasting
  CL renal: 182 mL/min
[1]; both sexes, human, po, 500 mg, single oral Compound 2 500 mg, fed
  CL renal: 110 mL/min
[1]; both sexes, human, po, 1000 mg, single oral Compound 2 1000 mg, South/Southeast/East Asian origin
  CL renal: 162 mL/min
[1]; both sexes, human, po, 1000 mg, single oral Compound 2 1000 mg, fasting
  CL renal: 190 mL/min
[1]; both sexes, human, po, 1500 mg, single oral Compound 2 1500 mg, fasting
  CL renal: 138 mL/min
[1]; [6]
  AUC(0-inf): 347 ± 64 ng·h/mL
  half-life: 30 ± 6 min
[1]; both sexes, human, plasma, po, 250 mg, single oral Compound 2 250 mg, fasting, read-out: Cmax
  Cmax: 482 ± 131 ng/mL
[1]; both sexes, human, plasma, po, 250 mg, single oral Compound 2 250 mg, fasting, read-out: Tmax
  Tmax: 30 min
[1]; [7]
  AUC(0-inf): 1110 ± 687 ng·h/mL
  half-life: 30 ± 60 min
[1]; both sexes, human, plasma, po, 500 mg, single oral Compound 2 500 mg, fasting, read-out: Cmax
  Cmax: 1230 ± 1110 ng/mL
[1]; both sexes, human, plasma, po, 500 mg, single oral Compound 2 500 mg, fasting, read-out: Tmax
  Tmax: 30 min
[1]; [8]
  AUC(0-inf): 980 ± 716 ng·h/mL
  half-life: 42 ± 18 min
[1]; both sexes, human, plasma, po, 500 mg, single oral Compound 2 500 mg, fed (high-fat/high-calorie meal), read-out: Cmax
  Cmax: 488 ± 303 ng/mL
[1]; both sexes, human, plasma, po, 500 mg, single oral Compound 2 500 mg, fed, read-out: Tmax
  Tmax: 120 min
[1]; [9]
  AUC(0-inf): 2730 ± 944 ng·h/mL
  half-life: 30 ± 6 min
[1]; both sexes, human, plasma, po, 1000 mg, single oral Compound 2 1000 mg, South/Southeast/East Asian origin, read-out: Tmax
  Tmax: 30 min
[1]; [10]
  AUC(0-inf): 1920 ± 508 ng·h/mL
  half-life: 30 ± 6 min
[1]; both sexes, human, plasma, po, 1000 mg, single oral Compound 2 1000 mg, fasting, read-out: Cmax
  Cmax: 3040 ± 960 ng/mL
[1]; both sexes, human, plasma, po, 1000 mg, single oral Compound 2 1000 mg, fasting, read-out: Tmax
  Tmax: 30 min
[1]; both sexes, human, plasma, po, 1000 mg, single oral Compound 2 1000 mg, patients of South/Southeast/East Asian origin, read-out: Cmax
  Cmax: 3670 ± 1260 ng/mL
[1]; [11]
  AUC(0-inf): 4630 ± 1500 ng·h/mL
  half-life: 36 ± 12 min
[1]; both sexes, human, plasma, po, 1500 mg, single oral Compound 2 1500 mg, fasting, read-out: Cmax
  Cmax: 5050 ± 2080 ng/mL
[1]; both sexes, human, plasma, po, 1500 mg, single oral Compound 2 1500 mg, fasting, read-out: Tmax
  Tmax: 30 min
[1]
  dose proportionality of plasma exposure: greater than dose-proportional manner
  Urine Elimination: < 3%
[2]
  plasma concentration at 1 h, the earliest time point measured: below the limit of quantitation
[3]; 1000 mg/kg loading then 500 mg/kg twice a day for 3 days
  tolerability of multiple doses (adverse clinical signs): well-tolerated
[4]; Compound 2 750 mg TID
  Tmax: 0.5 (0.5-1.0) h
[5]
  AUC0-24 h: 4.2 ± 0.5 µM·h
  Cmax: 2600 ± 300 nM
  Tmax: 48 ± 18 min

## C[C@@]1(F)[C@H](O)[C@@H](COP(=O)(O)OP(=O)(O)OP(=O)(O)O)O[C@H]1n1cnc2c(=O)[nH]c(N)nc21 [Compound 5]
[3]; [12]
  concentration of AT-9010 in pooled PBMCs: 0.575 pmol/10^6 cells
[3]; [13]
  concentration of AT-9010 in pooled PBMCs: 0.421 pmol/10^6 cells

## C[C@@]1(F)[C@H](O)[C@@H](CO)O[C@H]1n1cnc2c(=O)[nH]c(N)nc21 [Compound 6, 2′-fluoro-2′-C-methylguanosine]
[1]
  dose proportionality of plasma exposure: slightly less than dose-proportional
  Urine Elimination: 6.7-8.8%
[1]; [14]
  AUCInf: 1440 ± 280 ng·h/mL
  Cmax: 91 ± 19 ng/mL
  T1/2: 1150 ± 612 min
  Tmax: 6.0 (3.0-6.0) h
[1]; [15]
  AUCInf: 2390 ± 478 ng·h/mL
  Cmax: 135 ± 25 ng/mL
  T1/2: 834 ± 354 min
  Tmax: 4.0 (3.0-8.0) h
[1]; [16]
  AUCInf: 2990 ± 558 ng·h/mL
  T1/2: 1040 ± 660 min
  Tmax: 6.0 (6.0-8.1) h
[1]; single oral Compound 2 500 mg, fed (high-fat/high-calorie meal)
  Cmax: 175 ± 29 ng/mL
[1]; [17]
  AUCInf: 3830 ± 519 ng·h/mL
  T1/2: 978 ± 180 min
  Tmax: 5.0 (3.1-6.0) h
[1]; [18]
  AUCInf: 4350 ± 1520 ng·h/mL
  Cmax: 241 ± 71 ng/mL
  T1/2: 1570 ± 732 min
  Tmax: 4.1 (4.0-6.3) h
[1]; single oral Compound 2 1000 mg, patients of South/Southeast/East Asian origin
  Cmax: 240 ± 46 ng/mL
[1]; [19]
  AUCInf: 5460 ± 1190 ng·h/mL
  Cmax: 283 ± 32 ng/mL
  T1/2: 1300 ± 372 min
  Tmax: 6.0 (3.2-6.1) h
[1]; human, single oral Compound 2 250 mg, fasting
  CLR: 15.8 ± 2.8 L/h
[1]; human, single oral Compound 2 500 mg, fasting
  CLR: 16.8 ± 7.6 L/h
[1]; human, single oral Compound 2 500 mg, fed
  CLR: 13.4 ± 3.3 L/h
[1]; human, single oral Compound 2 1000 mg, South/Southeast/East Asian origin
  CLR: 18.7 ± 2.1 L/h
[1]; human, single oral Compound 2 1000 mg, fasting
  CLR: 17.1 ± 6.5 L/h
[1]; human, single oral Compound 2 1500 mg, fasting
  CLR: 19.5 ± 4.1 L/h
[2]; plasma
  AUC0-24 h: 22.9 µM·h
  Cmax: 1300 ± 300 nM
  Tmax: 480 ± 0 min
[3]; [12]
  plasma concentration: 1350 ± 860 nM
[3]; [13]
  plasma concentration: 670 ± 120 nM
[4]; BID
  increase of plasma exposure on multiple dosing: ~60%
[4]; QD
  increase of plasma exposure on multiple dosing: approximately 25%
[4]; TID
  increase of plasma exposure on multiple dosing: ~80%
[4]; Compound 2 750 mg BID
  AUCtau: 2680 ± 730 ng·h/mL
  Cmax: 288 ± 58 ng/mL
  Tmax: 3.5 (3.0-4.0) h
[4]; Compound 2 750 mg TID
  AUCtau: 2370 ± 743 ng·h/mL
  Cmax: 330 ± 98 ng/mL
  Tmax: 3.5 (3.0-6.0) h
[4]; Compound 2 1000 mg QD
  AUCtau: 3120 ± 694 ng·h/mL
  Cmax: 241 ± 56 ng/mL
  Tmax: 4.0 (3.0-4.0) h
[5]
  AUC0-24 h: 18.8 ± 6.0 µM·h
  Cmax: 2300 ± 700 nM
